Results taken from a melting point compilation (Tetko et al.; mined from patent text by program, amines drawn as free bases though some values may be those of a salt).

| melting point | SMILES |
| --- | --- |
| 54 to 55 °C | CN1C(=O)CC[C@]2(C)c3ccc(-c4ccccc4C#N)cc3CC[C@@H]12 |
| 156 °C | O=C1CC(CI)C(=O)N1c1ccc(F)cc1 (centres undefined) |
| 297 to 298 °C | O=C1c2ccccc2-c2cc(O)cc3cccc1c23 |
| 228 to 230 °C | COc1cccc(-n2c(N3CCNCC3)c(C(=O)N3CCN(C)CC3)c3ccccc32)c1 |
| 220 to 222 °C | Nc1nc(-c2ccc(Cl)cc2)c(CCC(=O)N2CCS(=O)(=O)CC2)s1 |
| 221 to 223 °C | Cc1cc(CC(=O)NCc2cccc3c2C(=O)N(C2CCC(=O)NC2=O)C3=O)oc1C (centres undefined) |
| 130 °C | Cc1c(NC(=O)OCc2ccccc2)cccc1C(C[N+](=O)[O-])c1c[nH]c2cc(OC3CCOC3)ccc12 (centres undefined) |
| 110 to 111 °C | O=C(COc1cccc(CCNS(=O)(=O)c2ccc(Cl)cc2)c1)N1CCOCC1 |
| 116 to 117 °C | O=C(O)Cc1cc(OCc2cccc(Oc3ccccc3)c2)ccc1Nc1c(Cl)cccc1Cl |
| 203 to 204 °C | Cn1cnc(S(=O)(=O)NCCc2ccc(OCC(=O)O)cc2)c1 |
| > 260 °C | Cn1c(=O)oc2cc(N3C[C@H](C(N)=O)OC3=O)ccc21 |
| 107 to 110 °C | CC#CC(C)(C)NC(=O)C(COC)Oc1cc(Cl)cc(Cl)c1 (centres undefined) |
| 143 to 145 °C | COC(=O)c1ccc(Cc2cn(C(C)C)c3ccc(C=C(C)C(=O)O)cc23)c(OC)c1 |
| 69 to 71 °C | CCOC(=O)C(=Nc1ccccc1)c1cccn1C |
| 95 to 96 °C | CCOC(=O)c1cnn(-c2ccc(OCC(C)(C)C(=O)OC)c(C#N)c2)c1 |
| 112 to 113 °C | CCOC(=O)C=CC=Cc1cn(-c2cccnc2)c2ccccc12 |
| 93 to 96 °C | Cc1ccccc1S(=O)(=O)Nc1onc(C)c1Br |
| 114 to 116 °C | COC(=O)c1ccc(C#CC(=O)c2ccc3c(c2)C(C)(C)CCC3)cc1O |
| 208 °C | CS(=O)(=O)C(=C1CN(C(c2ccccc2)c2ccccc2)C1)c1cccc(F)c1F |
| 116 °C | COc1ccc2ccc(I)cc2c1 |

| melting point | SMILES |
| --- | --- |
| 98.5 to 100 °C | COc1ccccc1-c1cc(C(C)(C)C)c(O)c(C(C)(C)C)c1 |
| 175 to 177 °C | O=C1c2ccccc2CS(=O)(=O)N1CC(O)CN1CCOCC1 (centres undefined) |
| 45 to 46 °C | Cc1ccccc1Oc1cccc2c1OC(=O)C2C (centres undefined) |
| > 260 °C | COc1cc(NC(=O)Nc2cccc3c2C2CC(O)CCN2C3=O)nc2ccccc12 (centres undefined) |
| 72 to 73 °C | N#CCSC(=S)SCCc1ccccc1 |
| 187 to 190 °C | O=C(O)COc1c(-c2cccc(Cl)c2)cc(C(=O)NCCCCc2ccccc2)cc1-c1cccc(C(F)(F)F)c1 |
| 152 to 153 °C | Cc1cc(=O)c(O)co1 |
| 224 to 225 °C | COC(=O)C1=C(C)Nc2nccn2C1c1cccc(N)c1 (centres undefined) |
| 118 to 120 °C | CCNC(=O)c1cccc([N+](=O)[O-])c1 |
| 245 to 247 °C | O=C1CCC(N2C(=O)c3cccc(NC(=O)c4cccc([N+](=O)[O-])c4)c3C2=O)C(=O)N1 (centres undefined) |
| 129 to 131 °C | Cn1ncc(S(=O)Cc2ccccc2)c(Cl)c1=O (centres undefined) |
| 135 to 145 °C | CNC(=O)NC1(C)CCCc2sccc21 (centres undefined) |
| 129 to 138 °C | N#Cc1c(OCCOc2ccccc2)cccc1[N+](=O)[O-] |
| 209 to 211 °C | Nc1cccc(C(=O)Nc2cccc3cc(Br)cnc23)c1 |
| 76 to 77 °C | CC(C)C(Oc1ccccc1)C(=O)NCCO[N+](=O)[O-] (centres undefined) |
| 77 to 78 °C | CC(C)(O)[C@@H](N)c1ccc2ccccc2c1 |
| 88 to 90 °C | C#CCn1ccc(C(=O)OC)c1C=NO |
| 150 °C | CN1CCCCC1CCc1ccccc1NC(=O)c1ccc(C(F)(F)F)cc1 (centres undefined) |
| 195 to 197 °C | O=[N+]([O-])c1cccc2c1S(=O)(=O)C=C2 |
| 200 to 202 °C | COc1ccccc1C(=O)c1c(SC)nn(-c2c(Cl)cc(Cl)cc2Cl)c1N |

| melting point | SMILES |
| --- | --- |
| 157 to 159 °C | CON=C(C)c1ccc2c(c1)ncn2-c1cccc(-c2nccs2)c1 |
| 170 to 172 °C | CCc1nc2nc3cc(Cl)ccc3nc2n1C(=O)C=C(C)C |
| 37 to 39 °C | C=CC1CCCC(=O)N1Cc1ccccc1Cl (centres undefined) |
| 169 to 172 °C | COc1ccc(Sc2ccc([N+](=O)[O-])cc2[N+](=O)[O-])c(N)c1 |
| 189 to 191 °C | CCn1nc(-c2cccc(Cl)c2)c(C(C)=O)c(Nc2cccc3cnccc23)c1=O |
| 180 °C | COc1ccc(CCNc2nc(C)c(CCO)c(=O)[nH]2)cc1 |
| 45 °C | CC(CF)(CF)C(=O)C=Cc1ccccc1 |
| 120 °C | CCOc1ccc2c(c1)n(C1CCCCC1)c(=O)n2Cc1ccc([N+](=O)[O-])cc1OC |
| 230 to 232 °C | COC(=O)c1cccc(S(=O)(=O)Cc2c(O)ccc3c2CCCC3=O)c1 |
| 185 to 190 °C | COC(=O)Cc1c(C)n(O)c(=O)c2ccccc12 |
| 94 to 95 °C | OCc1coc(/C=C/c2ccccc2)n1 |
| 244 to 245 °C | Cc1oc(C=Cc2ccc(Cl)cc2)nc1C(=O)O |
| 160 to 163 °C | Cc1ccc(C(=O)NCC2CCN(C[C@H]3COc4ccc(Cl)cc4O3)CC2)c(N)n1 |
| 253 to 254 °C | O=C(O)c1cc(OCc2ccc(Cl)cc2)c(C(=O)c2ccccc2)c([N+](=O)[O-])c1 |
| 77 to 78 °C | CC(C)(C)NC(=O)c1cc(F)ccc1N |
| 252 to 253 °C | COc1ccc2c(c1)CCC1C2CCC2(C)C(NC=O)CCC12 (centres undefined) |
| 245 °C | COC(=S)NN=C1C(=O)Nc2ccc(C3=NNC(=O)SC3C)cc21 (centres undefined) |
| 40 to 43 °C | CN(C)C(c1cccc(F)c1)C1CCC(C=O)CC1 (centres undefined) |

The next lines start with the compound.

| SMILES | melting point |
| --- | --- |
| COc1ccc(S(=O)(=O)N2c3ccc(Br)cc3-c3ccccc3C2C(C)(C)C)cc1 (centres undefined) | 195 to 198 °C |
| N=C(N)c1ccnc(-c2ccc(-c3ccc(-c4cc(C(=N)N)ccn4)s3)s2)c1 | > 300 °C |
| O=c1[nH]c(=O)c2cc(Oc3ccc(F)cc3F)ncc2[nH]1 | > 300 °C |
| COc1c(F)cc(-c2cncc(OC3SCC(O)C(O)C3O)c2)cc1F (centres undefined) | 203 °C |
| NCCOc1c(Cl)ccc2c1c1cccc3c1n2C(c1ccccc1)CO3 (centres undefined) | 127 to 128 °C |
| CC(=O)Oc1cc(S(=O)(=O)Oc2ccc(C(=O)c3c(Cc4ccccc4)sc(C)c3C)cc2C2CCCC2)ccc1C(=O)O | 94 to 96 °C |
| CCCCCCCCCN(C[C@H]1CCC[C@H](CN(CCCCCCCCC)C(=O)Nc2ccc(N(C)C)cc2)C1)C(=O)Nc1ccc(N(C)C)cc1 (relative stereo) | 116 to 120 °C |
| O=Cc1ccc(OCCCN2C(=O)c3ccccc3C2=O)cc1 | 120 to 121 °C |
| CN1CCC(=C2c3ccccc3COc3ccc(C#N)cc32)CC1 | 134 to 136 °C |
| Cc1cc(-c2cc(COS(C)(=O)=O)c(=O)n(CC=Cc3ccccc3)n2)ccc1F | 78.4 to 80.5 °C |
| COc1ccc(C2=NN(c3ccc(OCc4ccccc4)cc3)C(=O)[C@@H]3CC=CC[C@H]23)cc1OC | 104 to 105 °C |
| O=C1N(Cc2nsc(Cl)n2)c2cccc(Cl)c2C12COc1cc3c(cc12)OCO3 (centres undefined) | 174 to 176 °C |
| Cc1oc(-c2ccccc2)nc1CCSc1ccc(C=O)cc1 | 74 to 76 °C |
| COc1cc(-c2nc(N)sc2CSC2CCCCC2)c(OC)cc1C | 143 to 144 °C |
| COCCOc1cc(Cc2cnc(N)nc2N)cc2c1NCCC2 | 149 to 151 °C |
| COc1ccc2c3c(c(=O)oc2c1OC)CN(Cc1ccccc1)CC3 | 138 to 140 °C |
| CCC(C#N)(C#N)Cc1ccc(Cl)cc1 | 70.9 °C |
| Cc1ccc(C[C@@H]2CN(C(=O)/C=C/c3ccc(C(F)(F)F)cc3)CCN2C(=O)c2cc(C(F)(F)F)cc(C(F)(F)F)c2)cc1C | 74 to 76 °C |
| CC1C(=O)N(c2ccc(O)cc2)C(=S)N1c1ccc(Oc2ccccc2)cc1 (centres undefined) | 202 to 204 °C |
| CC12CC(=O)C3C(CCC4CC(=O)CCC43C)C1CCC2C(=O)CO (centres undefined) | 164 to 170 °C |
| CO[C@@H](C(=O)N[C@H]1CC[C@@H](OC(=O)Cc2ccc(Cl)c(Cl)c2)CNC1=O)[C@H](O)[C@@H](O)[C@H](O)/C=C/C(C)(C)C | 132 to 136 °C |

| SMILES | melting point |
| --- | --- |
| Oc1ccccc1N1c2ccccc2Sc2ccccc21 | 192 to 200 °C |
| N#CC1(C(O)(Cn2cncn2)c2ccc(Cl)cc2)CC1 (centres undefined) | 107 °C |
| CSC1=CC2=CN(O)NN2C(SC)=N1 | 275 to 278 °C |
| Oc1nc2cc(Cl)c3nc[nH]c3c2nc1O | > 300 °C |
| NC1Cc2cccc3c2C(C1)CN3C(=O)c1ccccc1 (centres undefined) | 118 to 120 °C |
| CNC(=O)Oc1ccc2oc3ccccc3c2c1 | 155 to 156 °C |
| Cc1nc(C[C@H]2CC[C@@](C)(NCC(=O)N3C[C@@H](F)C[C@H]3C#N)C2(C)C)no1 | 121 to 123 °C |
| COC(=O)CCC(C)C(=O)N1CCC[C@H]1C(=O)O (some centres undefined) | 174 to 175 °C |
| Cn1nc(C(F)(F)F)cc1Oc1cc(C#N)cc(Oc2cc(C(F)(F)F)nn2C)c1 | 139 °C |
| CN1CCN(CCCNc2ncc3cc(-c4c(Cl)cccc4Cl)c(NC(=O)Nc4ccc(C(F)(F)F)cc4)nc3n2)CC1 | 146 to 151 °C |
| O=C(NCCN1CCC(Nc2nc3ccccc3n2Cc2ccc(F)cc2)CC1)c1cc2ccccc2[nH]1 | 232 °C |
| O=C(Oc1ccc(Cl)cc1)n1c2c(c(=O)n(C3CCCCO3)c1=O)CCC2 (centres undefined) | 126 °C |
| O=C(CN(Cc1ccc(OCc2ccccc2)cc1)C(=O)[C@H](Cc1c[nH]cn1)NC(=O)OCc1ccccc1)NCCCCc1ccccc1 | 58 to 61 °C |
| Cc1noc(NS(=O)(=O)c2ccccc2-c2ccc(-c3ncco3)cc2CN2CCN(C)C2=O)c1C | 105 to 115 °C |
| CC1(C)CC(=O)C2=C(C1)NC1=C(C(=O)CC(C)(C)C1)C2c1cccc(Oc2cc(Cl)cc(Cl)c2)c1 | 254 to 255 °C |
| O=c1[nH]c2ncc(-c3ccccn3)nc2n1CC1CCCCC1 | 194 to 196 °C |
| c1ccc(C2c3ccccc3-c3ncncc32)cc1 (centres undefined) | 148 to 150 °C |
| c1n[nH]c2c1CCc1[nH]ncc1-2 | 219 to 221 °C |
| Clc1cc2c3c(c1)C(c1ccccc1)Nc1ccccc1N3CC2 (centres undefined) | 192 to 194 °C |
| COC1=C(Cl)C(=O)C(OC)=C(CCCCCC2=C(OC)C(=O)C(Cl)=C(OC)C2=O)C1=O | 79.8 to 80 °C |
